{
  "source": "patent EP4268819A1",
  "about": "(priority 2022, dated 2023)",
  "key": {"Calu-3 cells [1]": {"test_system": "Calu-3 cells", "assay": "Toxicity by staining of the nuclei (Hoechst+ cell count) in the icSARS-CoV-2-mNG IC50 experiment", "conditions": "Calu3 cells in the icSARS-CoV-2-mNG IC50 experiment"}, "DENV": {"test_system": "DENV", "conditions": "against DENV; reported, with a low therapeutic index; cited from earlier work"}, "ZIKA": {"test_system": "ZIKA", "conditions": "against ZIKA; reported, with a low therapeutic index; cited from earlier work"}, "[2]": {"assay": "CC50 calculation, MTT assay, Calu-3", "format": "cell-based", "conditions": "human, Calu-3 cells", "method": "(§1) The cells were treated with drug candidates at the indicated concentrations. Negative control (non-treated), DMSO control and positive control (100% DMSO treated) were added, and plates were then stored at 37 °C, 5 % CO2 for 72h. The old cell media was then discarded, and cells were incubated for 3 h at 37°C, 5% CO2 with 90 µl phenolred-free DMEM-Media and 10 µl of a 5 mg/ml MTT solution per well (#ab146345 Abcam). Afterwards Media was discarded carefully, and Formazan crystals were dissolved on a shaker with 100 µl MTT buffer/well (0.04 N HCI in isopropanol) for 10 minutes. Absorption levels at 570 nm and 650 nm wavelength were measured by Berthold TriStar2 S Multimode Reader and values were normalized to non-treated cells. CC50 was calculated as the half-maximal cytotoxic dose via GraphPad Prism 9 using four-parameter nonlinear regression.\n(§2) Absorption levels at 570 nm and 650 nm wavelength were measured and values were normalized to non-treated cells. CC50 was calculated as the half-maximal cytotoxic dose via GraphPad Prism 9 using four-parameter nonlinear regression.\n(§3) They now expanded the tests and used MTT assay, which is a procedure used to calculate the redox activity at the mitochondrial membrane of cells and the commercial cell titer glow assay (Promega) to measure cellular ATP. Cell lines tested were the ones used for our antiviral assay, i.e. Calu-3, Caco-2 and Huh7.5 cells."}, "[3]": {"assay": "Cell viability via live cell imaging (IncuCyte), Huh7.5", "conditions": "human, huh7.5 cells", "procedure": "(§4) Calu-3 (40.000/well), Huh7.5 (10.000/well) and CaCo2 (10.000/well) cells were seeded in 96-well plates in DMEM-Media. The cells were treated with the drug compounds at the indicated concentrations, negative control (non-treated), DMSO control and positive control (50% DMSO treated) were added, and plates were then stored in the IncuCyte® at 37 °C, 5 % CO2 for 72h measuring every 3 hours cell confluency via phase channel with 10x objective. For Analysis IncuCyte® S3 Software was used.\n(§5) Plates were then stored in the IncuCyte® measuring every 3 hours cell confluency."}, "in vitro [4]": {"assay": "in vitro", "format": "cell-based", "conditions": "human", "method": "The old cell media was then discarded, and cells were washed with PBS. 35 µl DMEM-Media and 35 µl CellTiterGlow® reagent (#G7571, Promega) were added and incubated for 2 minutes on an orbital shaker protected from light. Afterwards plates were incubated for 10 minutes without shaking to stabilize the luminescent signal. 50 µl of the supernatant was transferred to a white 96 well measure plate and measured by Berthold TriStar2 S Multimode Reader. The background signal was determined by the luminescent signal of the positive control subtracted from the values used for analysis. The data was then normalized to the non-treated control. CC50 was calculated as the half-maximal cytotoxic dose via GraphPad Prism 9 using four-parameter nonlinear regression.\nLuminescent signals were measured by Berthold TriStar2 S Multimode Reader. The data was then normalized to the non-treated control. CC50 was calculated as the half-maximal cytotoxic dose via GraphPad Prism 9 using four-parameter nonlinear regression."}, "icSARS-CoV-2-mNG [5]": {"test_system": "icSARS-CoV-2-mNG", "assay": "IC50 calculation with icSARS-CoV-2-mNG in Calu-3 cells (mNG+/Hoechst+ infection rate)", "conditions": "ic-SARS-CoV-2-mNG in Calu-3 cells; for Therapeutic range: CC50/IC50 (CTG): CC50 by CTG; for Therapeutic range: CC50/IC50 (IncuCyte): CC50 by IncuCyte; for Therapeutic range: CC50/IC50 (MTT): CC50 by MTT"}, "[6]": {"test_system": "DENV type 2 reporter virus"}, "[7]": {"test_system": "DENV type 2 reporter virus", "assay": "microbe, parasite or virus in culture", "conditions": "Dengue virus, Huh7.5, 24 h"}, "in vitro [8]": {"assay": "in vitro", "conditions": "human, calu-3 cells, CC50 (IncuCyte), confluency every 3 hours for 72h", "procedure": "as §4, §5"}, "Calu-3 cells [9]": {"test_system": "Calu-3 cells", "procedure": "as §4, §5"}, "[10]": {"assay": "CC50 calculation, MTT assay, Huh7.5", "format": "cell-based", "conditions": "human, Huh7.5 cells", "method": "as §1, §2, §3"}, "icSARS-CoV-2-mNG [11]": {"test_system": "icSARS-CoV-2-mNG", "format": "cell-based, SARS-CoV-2"}, "in vitro [12]": {"assay": "in vitro", "format": "cell-based", "conditions": "human, caco-2; IncuCyte; cell line not specified; read-out: level of growth inhibition (live-cell imaging, growth curves)", "text": "For Analysis IncuCyte® S3 Software was used."}, "CaCo2 and Calu3 cells": {"test_system": "CaCo2 and Calu3 cells", "conditions": "screening at 50, 10, 2 µM"}, "Huh7.5 cells": {"test_system": "Huh7.5 cells", "assay": "CC50 calculation, MTT assay, Huh7.5", "format": "cell-based", "conditions": "72h, 4320 min", "method": "as §1, §2, §3"}, "[13]": {"conditions": "Calu3 and Caco2 cells, 24h pre-treatment, […], 50, 10, 2 µM (Atpenin A5 10, 2, 0.4 µM)"}},
  "note": "Read-outs that look alike come from different tables or passages of the source.",
  "data": [
    {"smiles": "CN(C)C(=N)N=C(N)N", "note": "[Metformin]", "values": [
      {"measurement": "toxicity (staining of the nuclei, cell count)", "setting": "Calu-3 cells [1]", "value": "without any cytotoxicity"},
      {"measurement": "antiviral activity", "setting": "DENV", "value": "mM range"},
      {"measurement": "antiviral activity", "setting": "ZIKA", "value": "mM range"}
    ]},
    {"smiles": "COc1[nH]c(=O)c(C(=O)[C@@H](C)C[C@H](C)[C@@H](Cl)CCl)c(O)c1OC", "note": "[Atpenin A5, atpenin A5]", "values": [
      {"measurement": "CC50 at 72 h", "setting": "[2]", "value": 1200, "unit": "nM"},
      {"measurement": "CC50 at 72 h", "setting": "[3]", "value": 65, "unit": "µM"},
      {"measurement": "CC50 at 72 h", "setting": "in vitro [4]; Calu-3 cells, 72h, read-out: CC50 (CTG)", "value": 860, "unit": "nM"},
      {"measurement": "CC50 at 72 h", "setting": "in vitro [4]; Huh7.5 cells, 72h, read-out: CC50 (CTG)", "value": 62000, "unit": "nM"},
      {"measurement": "Therapeutic range: CC50/IC50 (CTG)", "setting": "icSARS-CoV-2-mNG [5]", "value": "CTG: 1.72"},
      {"measurement": "Therapeutic range: CC50/IC50 (IncuCyte)", "setting": "icSARS-CoV-2-mNG [5]", "value": "IncuCyte: > 320"},
      {"measurement": "Therapeutic range: CC50/IC50 (MTT)", "setting": "icSARS-CoV-2-mNG [5]", "value": "MTT: 24"},
      {"measurement": "Therapeutic range: CC50/IC50 (CTG)", "setting": "[6]; Dengue Virus in Huh7.5 cells, CC50 by CTG", "value": "CTG: 229.5"},
      {"measurement": "Therapeutic range: CC50/IC50 (IncuCyte)", "setting": "[6]; Dengue Virus in Huh7.5 cells, CC50 by IncuCyte", "value": "IncuCyte: 240.7"},
      {"measurement": "Therapeutic range: CC50/IC50 (MTT)", "setting": "[6]; Dengue Virus in Huh7.5 cells, CC50 by MTT", "value": "MTT: 375.2"},
      {"measurement": "IC50", "setting": "[7]", "value": 270, "unit": "nM"},
      {"measurement": "CC50 at 72 h", "setting": "in vitro [8]", "value": "> 160", "unit": "µM"},
      {"measurement": "CC50", "setting": "Calu-3 cells [9]; read-out: CC50 (IncuCyte), confluency every 3 hours for 72h, 4320 min", "value": "> 0.08", "unit": "mM"},
      {"measurement": "CC50 at 72 h", "setting": "[10]", "value": 101, "unit": "µM"},
      {"measurement": "SARS-CoV-2 infection of the cell lines (infection rate mNG+/Hoechst+ cells)", "setting": "icSARS-CoV-2-mNG [11]; [13]", "value": "inhibited SARS-CoV-2 infection of the cell lines in a dose-dependent manner"},
      {"measurement": "CC50 at 72 h", "setting": "in vitro [12]", "value": "> 60", "unit": "µM"}
    ]},
    {"smiles": "CC(C)Cc1nn(C)c(=O)c2c(SCCCO)n(Cc3cccc4ccccc34)cc12", "note": "[SR13800]", "values": [
      {"measurement": "toxicity (cell viability by Hoechst staining of the nucleus)", "setting": "CaCo2 and Calu3 cells", "value": "toxic"}
    ]},
    {"smiles": "O[C@H]1[C@H](O)[C@@H](O)[C@H](O)[C@@H](O)[C@@H]1O", "note": "[Scyllo-Inositol, Scyllo-inositol]", "values": [
      {"measurement": "SARS-CoV-2 infection of the cell lines (infection rate mNG+/Hoechst+ cells)", "setting": "icSARS-CoV-2-mNG [11]; [13]", "value": "did not show any activity"}
    ]},
    {"smiles": "[H]/N=C(/N)N/C(=N/[H])NCCc1ccccc1", "note": "[Phenformin]", "values": [
      {"measurement": "toxicity (staining of the nuclei, cell count)", "setting": "Calu-3 cells [1]", "value": "without any toxicity"},
      {"measurement": "CC50 at 72 h", "setting": "in vitro [4]; caco-2", "value": "> 2000", "unit": "nM"},
      {"measurement": "CC50 at 72 h", "setting": "in vitro [4]; calu-3 cells", "value": "> 2000", "unit": "nM"},
      {"measurement": "CC50 at 72 h", "setting": "in vitro [4]; huh7.5 cells", "value": "> 2000", "unit": "nM"},
      {"measurement": "Therapeutic range: CC50/IC50 (CTG)", "setting": "icSARS-CoV-2-mNG [5]", "value": "CTG: 1306.4"},
      {"measurement": "Therapeutic range: CC50/IC50 (IncuCyte)", "setting": "icSARS-CoV-2-mNG [5]", "value": "IncuCyte: 867.1"},
      {"measurement": "Therapeutic range: CC50/IC50 (MTT)", "setting": "icSARS-CoV-2-mNG [5]", "value": "MTT: 876.3"},
      {"measurement": "Therapeutic range: CC50/IC50 (CTG)", "setting": "[6]; human, huh7.5 cells", "value": "CTG: 109.2"},
      {"measurement": "Therapeutic range: CC50/IC50 (IncuCyte)", "setting": "[6]; human, huh7.5 cells", "value": "IncuCyte: 59.9"},
      {"measurement": "Therapeutic range: CC50/IC50 (MTT)", "setting": "[6]; human, huh7.5 cells", "value": "MTT: 3.3"},
      {"measurement": "CC50", "setting": "Calu-3 cells [9]; human, 72h", "value": 1.5, "unit": "mM"},
      {"measurement": "CC50", "setting": "Huh7.5 cells", "value": 61.2, "unit": "µM"},
      {"measurement": "SARS-CoV-2 infection of the cell lines (infection rate mNG+/Hoechst+ cells)", "setting": "icSARS-CoV-2-mNG [11]", "value": "inhibited SARS-CoV-2 infection of the cell lines in a dose-dependent manner"}
    ]}
  ]
}
